Test [1] addresses T1, KV1.3 (Homo sapiens, UniProt P22001). Briefly: KV1.3 inhibition, HiClamp on Xenopus laevis oocytes. As to conditions: Xenopus laevis oocytes (marked * in Table 2). The class given is cell-based. The protocol:
(§1) Stage V–VI oocytes were isolated by partial ovariectomy from Xenopus laevis frogs (African clawed frogs). […] After anaesthetizing the frogs by a 15-min submersion in 0.1% tricaine methanesulfonate (amino benzoic acid ethyl ester; Merck, Kenilworth, NJ, USA), pH 7.0, the oocytes were collected. The isolated oocytes were then washed with a 1.5 mg/mL collagenase solution for 2 h to remove the follicle layer.
(§2) Ion channels (Kv1.x, Kv2.1, Kv4.2, Kv10.1) were expressed in Xenopus laevis oocytes by linearization of the plasmids and subsequent in vitro transcription using a commercial T7 or SP6 mMESSAGE mMACHINE transcription kit (Ambion, Carlsbad, California, USA). Defolliculated Xenopus oocytes were then injected with 20–50 nL of the cRNA at a concentration of 1 ng/nL using a micro-injector (Drummond Scientific1, Broomall, PA, USA). The oocytes were incubated in a solution containing (in mM): NaCl, 96; KCl, 2; CaCl2, 1.8; MgCl2, 2 and HEPES, 5 (pH 7.5), supplemented with 50 mg/L gentamycin sulfate and 90 mg/L theophylline.
(§3) Two-electrode voltage-clamp recordings were performed at room temperature (18–22 °C) using a Geneclamp 500 amplifier (Molecular Devices, San Jose, CA, USA) and pClamp data acquisition (Axon Instruments, Union City, CA, USA) and using an integrated digital TEVC amplifier controlled by HiClamp, an automated Voltage-Clamp Screening System (Multi Channel Systems MCS GmbH, Reutlingen, Germany). Whole-cell currents from oocytes were recorded 1–4 days after injection. The bath solution composition was ND96 (in mM): NaCl, 96; KCl, 2; CaCl2, 1.8; MgCl2, 2 and HEPES, 5 (pH 7.5). Voltage and current electrodes were filled with a 3 M solution of KCl in H2O. […] The elicited Kv1.x, Kv2.1, Kv4.2 and Kv10.1 currents were filtered at 0.5 kHz and sampled at 2 kHz using a four-pole low-pass Bessel filter. Leak subtraction was performed using a P/4 protocol.
(§4) For the electrophysiological analysis of the compounds, a number of protocols were applied from a holding potential of −90 mV. Currents for Kv1.x, Kv2.1, Kv4.2 and Kv10.1 were evoked by 1 s depolarizing pulses either to 0 mV or to a range of voltage steps between −80 mV and +40 mV. For the analysis of the data, only the inhibition at the 0 mV step was used. The concentration dependency of all compounds was assessed by measuring the current inhibition in the presence of increasing compound concentrations. […] From this stock solution, adequate dilutions with a maximum of 0.5% DMSO were made for testing.
(§5) All electrophysiological data (Figure S1) are presented as means ± S.E.M of n ≥ three independent experiments unless otherwise indicated. […] The Dunnett test and one-way ANOVA were performed to calculate the significance of the induced inhibition compared to the control.

The target of test [2] is T1, KV1.3. Briefly: KV1.3 inhibition, manual voltage-clamp on Xenopus laevis oocytes. As to conditions: 10 μM; manual voltage-clamp on Xenopus laevis oocytes. Format: cell-based. The procedure:
as §1, §2, §3, §4, §5

T1 sequence (P22001 whole entry): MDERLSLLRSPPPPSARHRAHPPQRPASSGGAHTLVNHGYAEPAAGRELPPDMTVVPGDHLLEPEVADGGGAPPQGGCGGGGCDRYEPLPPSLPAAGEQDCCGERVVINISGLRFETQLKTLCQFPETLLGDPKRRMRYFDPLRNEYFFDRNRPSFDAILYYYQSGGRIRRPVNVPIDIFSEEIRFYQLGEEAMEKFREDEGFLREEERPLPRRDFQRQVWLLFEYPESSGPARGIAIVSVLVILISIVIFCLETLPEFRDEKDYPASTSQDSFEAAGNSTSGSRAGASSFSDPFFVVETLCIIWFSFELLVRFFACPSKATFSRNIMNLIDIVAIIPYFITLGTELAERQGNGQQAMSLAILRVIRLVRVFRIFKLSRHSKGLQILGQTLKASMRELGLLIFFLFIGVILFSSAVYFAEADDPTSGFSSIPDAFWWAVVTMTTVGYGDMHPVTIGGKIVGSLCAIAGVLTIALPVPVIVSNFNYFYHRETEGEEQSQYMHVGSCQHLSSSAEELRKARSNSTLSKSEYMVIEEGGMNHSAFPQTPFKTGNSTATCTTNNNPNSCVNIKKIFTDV

As usually defined, the IC50 is the point on the concentration scale where inhibition reaches its midpoint. Higher therefore signals lower potency. The term inhibition denotes the relative decrease from the control value, in per cent. Low values mean little suppression, high ones strong suppression. As for `COc1cc(C)ccc1C(=O)NCC1(c2ccccc2)CCOCC1` [Compound 36], the IC50 at KV1.3 [1] was 1650 nM. At KV1.3 [2], this compound gave an inhibition at 10 µM of 89 ± 4%.

At KV1.3 [2], `COc1ccccc1C(=O)NCC1(c2csc(C)n2)CCOCC1` [Compound 41] yielded an inhibition at 10 µM of 41 ± 10%. Still for that read-out and setting: to `COc1ccccc1C(=O)NCC1(c2cscn2)CCOCC1` [Compound 42] belongs 54 ± 10%; to `COc1cccc(OC)c1C(=O)NCC1(c2ccsc2)CCOCC1` [Compound 45], < 10%. The same measure, in the same setting: to `O=C(NCC1(c2ccsc2)CCOCC1)c1ccoc1` [Compound 46] belongs 21 ± 6%; to `CCOc1ccccc1C(=O)NCC1(c2ccsc2)CCOCC1` [Compound 47], 35 ± 8%.
